Measured values as given in ChEMBL document CHEMBL3507680, “University of Dundee, Gates Library screen for HepG2 cell viability”.
Values joined by “and” are separate entries in the source; they are usually repeats but may differ in a detail not shown here. Equal entries are not always repeated.

Experiments:
[1] = Human HepG2 cell viability assay in 384 well format; assay type: toxicity, cell-based; design: dose 125 nL, time 70.5 hour; concentration not given beside the values; conditions: HepG2 cells, read-out: Inhibition
[2] = Human HepG2 cell viability dose-response assay; assay type: toxicity, cell-based

Row | SMILES | cytotoxicity at 70.5 h [1] [%] | BOTTOM [2] | HILLSLOPE [2] | TOP [2] | pXC50 [2]
1 | O=C(C[C@@H]1COC[C@H]2CN(C3CCOCC3)C[C@@H]12)Nc1cnccn1 | 76.4 | 0 | 0 | 0 | < 4.53
2 | COc1nn(C)c2c1CCCN(C(=O)c1ccc3c(c1)OCO3)C2.O=C(O)C(F)(F)F | 77.9 | 0 | 0 | 0 | < 4.53
3 | CC1(C)Cc2nc(C(C)(C)C)ncc2C(NC(=O)C2(N)CC2)C1 (stereo not drawn) | 105 | 0 | 0 | 0 | < 4.53
4 | CC(C)c1ccc(CN2C(=O)C3(CCNCC3)Nc3ccccc32)cc1 | 105 | -7.959 and -9.531 | 9.317 and 9.377 | 102.3 and 101.9 | 4.989 and 5.005
5 | Cc1cc(C)cc(C(=O)NCCCNc2ncccn2)c1 | 101 | -7.868 and -9.506 | 17.28 and 6.436 | 100.1 and 99.9 | 5.413
6 | COc1ccccc1N1CCN(C(=O)CSCC2CC2)C(C)C1 (stereo not drawn) | 97.2 | 0 | 0 | 0 | < 4.53
7 | C=Cc1ccc(CN2C(=O)C3(CCNCC3)Nc3ccccc32)cc1 | 102 | -4.877 and -3.437 | 10.74 and 12.71 | 102 | 5.033 and 5.016
8 | COc1ccc(CNC(Cc2ccsc2)c2ccc(C)cn2)c(OC)c1 (stereo not drawn) | 85.3 | – | 2.726 and 2.464 | 91.22 and 91.65 | 5.292 and 5.344
9 | CC(C)Nc1cc(-c2c[nH]nc2C2CCN(C(=O)C3CC3)C2)ccn1 (stereo not drawn) | 96.7 | – | 3.535 and 2.719 | 97.3 and 97.69 | 6.519 and 6.486
10 | Cc1nc(Nc2nccs2)cc(C2CCCN2)n1.Cl (stereo not drawn) | 101 | 11.4 and 11.68 | 4.445 and 3.614 | 100.1 and 100.5 | 5.52 and 5.57
11 | O=C(Cn1cc(-c2ccccc2)ncc1=O)Nc1nc(C2CC2)n[nH]1 | 99.8 | -8.692 and -5.853 | 2.68 and 2.241 | 101 and 102.4 | 5.614 and 5.594
12 | Cc1cccc(C)c1Nc1noc2c1CN(C(=O)c1ccnn1C)CC2 | 69.8 | -5.714 and -2.53 | 1.878 and 1.75 | 100 | 4.825 and 4.807
13 | CC(C)CNc1cc(-c2c[nH]nc2C2CCN(C(=O)C3CC3)C2)ccn1 (stereo not drawn) | 95.1 | -0.825 and -1.513 | 7.855 and 3.586 | 97.39 and 97.86 | 6.385 and 6.436
14 | O=C(c1cccc2cccnc12)N1CC[C@@]2(CCCO2)[C@@H](O)C1 | 74.5 | -1.598 and -1.635 | 1.904 and 1.967 | 100 | 4.773 and 4.744
15 | CC(C)c1cc(NC(=O)Cn2cnc3ccccc3c2=O)[nH]n1 | 104 | -4.443 and -6.453 | 2.259 and 2.3 | 101.3 and 101.4 | 5.61 and 5.595
16 | COCc1noc(-c2ccc(N(C)Cc3ncccc3C)nc2)n1 | 73.3 | -13.69 and -12.76 | 1.85 and 1.799 | 100 | 5.092
17 | Cc1cccc(CN2CCCC2c2cccc(Nc3nccs3)n2)c1 (stereo not drawn) | 84.1 | – | 2.773 and 1.557 | 82.62 and 100 | 6.512 and 6.485
18 | COC[C@H]1CCC[C@]12CN(Cc1cccc(C)n1)CCO2 | 63.1 | 0 | 0 | 0 | < 4.53
19 | Clc1ccccc1C1(c2ccnc(C3CCCC3)n2)CCNCC1 | 73 | 17.52 and 27.16 | 2.801 and 2.528 | 108.2 and 108.3 | 5.086 and 5.104
20 | CC(C)N(C)C(=O)c1ccc(CNc2ccncc2Cl)cc1 | 74.8 | 0 | 0 | 0 | < 4.53
21 | CC(C)n1ccc(C(=O)NCC(O)c2c(Cl)cccc2Cl)n1 (stereo not drawn) | 65.8 | 0 | 0 | 0 | < 4.53
22 | CCCc1nc2c(c(C)c(C)n2Cc2ccccn2)c(N)c1CC | 80.2 | 13.8 and 17.26 | 1.43 and 1.529 | 100 | 5.166 and 5.178
23 | CC(C)OCCN1CCC(Nc2nccnc2C#N)CC1 | 62.9 | -6.463 and -12.72 | 1.108 and 0.9682 | 100 | 5.071 and 5.086
24 | CN(C(=O)[C@H]1CSCN1C(=O)OC(C)(C)C)C1CC1 | 73.6 | 0 | 0 | 0 | < 4.53
25 | CCc1ccc(-c2cc(C(F)(F)F)nc(N3CCC(N)CC3)n2)cc1 | 101 | 0.817 and 1.062 | 8.779 and 6.129 | 102.2 and 102.5 | 5.566 and 5.542
26 | CSc1ccc(NC(=O)Nc2ccc3c(c2)N(S(C)(=O)=O)CC3)cc1 | 68.5 | -10.17 and -8.332 | 0.8924 and 0.8709 | 100 | 4.975 and 4.922
27 | CCS(=O)(=O)N1CCc2ccc(NC(=O)Nc3cccc(SC)c3)cc21 | 63.9 | -6.506 and -6.611 | 1.266 and 1.157 | 100 | 5.029 and 4.966
28 | c1cncc(CN2CCCn3nnc(CN4CCCCC4)c3C2)c1 | 65.6 | 0 | 0 | 0 | < 4.53
29 | COc1cc(NC(=O)C2CC(=O)N(c3cccc(Br)c3)C2)ncn1 (stereo not drawn) | 91.5 | 13.61 and 20.88 | 5.533 and 3.735 | 100.7 and 101.2 | 5.491 and 5.506
30 | CC(Cn1cccn1)NC(=O)C1=Cc2ccccc2OC1 (stereo not drawn) | -4.64 | – | – | – | –
